This passage reports Activity and inhibition results from ChEMBL document CHEMBL4130363, “Synthesis and pharmacological evaluation of benzamide derivatives as potent and selective sigma-1 protein ligands” (Eur J Med Chem, 2017).

What all share (format): functional
The target of assay [1] is T1, Type-1 angiotensin II receptor (Homo sapiens) (UniProt P30556).
T1 sequence (whole entry): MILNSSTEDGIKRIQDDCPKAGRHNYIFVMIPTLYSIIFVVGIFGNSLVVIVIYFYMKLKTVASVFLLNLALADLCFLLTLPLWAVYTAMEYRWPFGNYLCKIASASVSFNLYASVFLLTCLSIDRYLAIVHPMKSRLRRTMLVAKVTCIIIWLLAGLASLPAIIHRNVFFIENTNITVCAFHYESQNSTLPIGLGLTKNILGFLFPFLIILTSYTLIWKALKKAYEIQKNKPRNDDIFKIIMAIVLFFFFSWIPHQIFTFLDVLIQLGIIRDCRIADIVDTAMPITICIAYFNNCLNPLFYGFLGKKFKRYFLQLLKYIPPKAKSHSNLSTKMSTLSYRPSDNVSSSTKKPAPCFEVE
As to the kind of experiment: Agonist activity at recombinant human AT1 receptor […] at 10 uM by aequorin reporter based assay relative to agonist.

Assay [2] concerns the target 5-hydroxytryptamine receptor 1B (Homo sapiens) (UniProt P28222). Put plainly: Antagonist activity at recombinant human 5-HT1B assessed as inhibition of agonist-induced effect at 10 uM by GTPgamma[35S] binding-based assay.
Assay [3] deals with T2, 5-hydroxytryptamine receptor 2C (Homo sapiens) (UniProt P28335).
T2 sequence (whole entry): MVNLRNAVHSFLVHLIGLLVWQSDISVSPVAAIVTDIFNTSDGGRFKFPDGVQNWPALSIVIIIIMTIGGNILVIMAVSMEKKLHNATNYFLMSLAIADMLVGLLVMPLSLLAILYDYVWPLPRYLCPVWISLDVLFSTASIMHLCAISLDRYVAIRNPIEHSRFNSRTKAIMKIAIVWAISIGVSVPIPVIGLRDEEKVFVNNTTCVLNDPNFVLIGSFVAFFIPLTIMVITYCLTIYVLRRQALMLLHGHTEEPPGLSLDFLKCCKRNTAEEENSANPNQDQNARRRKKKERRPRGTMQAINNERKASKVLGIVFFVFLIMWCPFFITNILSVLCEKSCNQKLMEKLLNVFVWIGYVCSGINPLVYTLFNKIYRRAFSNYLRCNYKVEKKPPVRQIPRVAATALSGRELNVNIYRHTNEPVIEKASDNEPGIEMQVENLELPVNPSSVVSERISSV
As to the kind of experiment: Antagonist activity at recombinant human 5-HT2C assessed as inhibition of agonist-induced effect at 10 uM by aequorin reporter based assay.

In assay [4] the target is T3, Alpha-1B adrenergic receptor (Homo sapiens) (UniProt P35368).
T3 sequence (whole entry): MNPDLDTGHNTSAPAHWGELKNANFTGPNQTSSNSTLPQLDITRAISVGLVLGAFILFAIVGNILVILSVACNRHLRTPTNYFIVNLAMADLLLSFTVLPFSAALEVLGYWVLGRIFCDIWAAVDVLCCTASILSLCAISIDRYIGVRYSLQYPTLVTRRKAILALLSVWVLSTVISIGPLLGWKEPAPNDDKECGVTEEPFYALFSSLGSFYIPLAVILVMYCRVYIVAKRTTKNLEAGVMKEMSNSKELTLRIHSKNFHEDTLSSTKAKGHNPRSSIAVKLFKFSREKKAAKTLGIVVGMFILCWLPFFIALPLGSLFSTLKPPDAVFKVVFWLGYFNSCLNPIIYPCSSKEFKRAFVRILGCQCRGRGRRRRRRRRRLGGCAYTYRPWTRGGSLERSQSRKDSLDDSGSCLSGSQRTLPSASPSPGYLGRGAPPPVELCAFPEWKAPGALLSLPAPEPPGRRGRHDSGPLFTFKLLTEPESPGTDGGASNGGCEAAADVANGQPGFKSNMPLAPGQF
As to the kind of experiment: Antagonist activity at recombinant human alpha-1b adrenergic receptor assessed as inhibition of agonist-induced […] reporter based assay.

In assay [5] the target is T4, Alpha-2A adrenergic receptor (Homo sapiens) (UniProt P08913).
T4 sequence (whole entry): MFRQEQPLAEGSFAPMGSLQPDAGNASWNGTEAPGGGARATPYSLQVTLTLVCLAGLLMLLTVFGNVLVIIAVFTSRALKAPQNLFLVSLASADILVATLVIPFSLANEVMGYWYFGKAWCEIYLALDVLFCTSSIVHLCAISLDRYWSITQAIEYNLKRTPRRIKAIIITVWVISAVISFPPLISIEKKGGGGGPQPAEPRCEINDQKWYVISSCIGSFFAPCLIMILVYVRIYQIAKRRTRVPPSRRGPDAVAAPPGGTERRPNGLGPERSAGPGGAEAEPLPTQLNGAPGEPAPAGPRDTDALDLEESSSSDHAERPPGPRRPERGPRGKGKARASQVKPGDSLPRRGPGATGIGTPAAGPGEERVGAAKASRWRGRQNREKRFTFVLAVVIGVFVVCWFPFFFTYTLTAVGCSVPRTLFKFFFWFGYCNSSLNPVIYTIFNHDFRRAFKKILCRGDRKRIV
As to the kind of experiment: Antagonist activity at recombinant human alpha-2a adrenergic receptor assessed as inhibition of agonist-induced effect at 10 uM by GTPgamma[35S] binding-based assay.

The target in assay [6] is T5, Cholecystokinin receptor type A (Homo sapiens) (UniProt P32238).
T5 sequence (whole entry): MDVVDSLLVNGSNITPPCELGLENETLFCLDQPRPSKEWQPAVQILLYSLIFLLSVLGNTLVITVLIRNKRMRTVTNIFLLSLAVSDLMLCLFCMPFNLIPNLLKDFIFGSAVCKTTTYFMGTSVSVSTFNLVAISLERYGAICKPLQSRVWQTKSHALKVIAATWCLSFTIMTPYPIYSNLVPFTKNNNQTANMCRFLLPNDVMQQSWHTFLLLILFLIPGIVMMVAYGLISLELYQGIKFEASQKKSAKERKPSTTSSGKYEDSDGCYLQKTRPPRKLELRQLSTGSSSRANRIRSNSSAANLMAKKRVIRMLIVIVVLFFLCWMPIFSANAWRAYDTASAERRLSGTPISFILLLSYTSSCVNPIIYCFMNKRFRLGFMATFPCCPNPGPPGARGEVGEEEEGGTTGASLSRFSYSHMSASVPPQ
Put plainly: Agonist activity at recombinant human […] receptor at 10 uM by aequorin reporter based assay relative to agonist.

Chain of 5-hydroxytryptamine receptor 1B (Homo sapiens) (P28222 whole entry): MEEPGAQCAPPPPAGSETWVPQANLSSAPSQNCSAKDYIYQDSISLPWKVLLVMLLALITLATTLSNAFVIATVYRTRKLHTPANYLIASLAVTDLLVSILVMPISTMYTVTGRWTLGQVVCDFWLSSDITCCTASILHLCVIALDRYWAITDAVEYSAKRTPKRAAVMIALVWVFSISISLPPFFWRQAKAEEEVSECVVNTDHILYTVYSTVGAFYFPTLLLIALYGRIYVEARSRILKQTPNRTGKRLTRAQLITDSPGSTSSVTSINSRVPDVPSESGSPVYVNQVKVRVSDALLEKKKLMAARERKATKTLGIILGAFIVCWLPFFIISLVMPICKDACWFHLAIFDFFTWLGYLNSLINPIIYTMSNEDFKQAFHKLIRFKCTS

As to `CN(CCNC(=O)c1ccc([N+](=O)[O-])cc1)Cc1ccccc1`, the Activity in assay [1] is 0%; in assay [6] it was -2%. The inhibition in assay [2] came out at 7%; in assay [3] it was 80%; in assay [4], 84%; in assay [5], 32%.
On to `CN(CCCNC(=O)c1cccc(Br)c1)Cc1ccccc1`, for which the Activity in assay [1] and in assay [6] was 0% in each case. Moreover, the inhibition in assay [2] is 35%; in assay [3] it was 54%; in assay [4], 97%; in assay [5], 57%.
For `CCCc1ccc(C(=O)NCCCN(C)Cc2ccccc2)cc1`, the Activity in assay [1] was 0%; in assay [6] it was -1%. Also, the inhibition in assay [2] is -8%; in assay [3], 94%; in assay [4] it was 72%; in assay [5], 37%.
`CN(CCCNC(=O)c1ccc(Br)cc1)Cc1ccccc1`: the figures for the Activity in assay [1] and in assay [6] were 1% and -1%, respectively. Besides, the inhibition in assay [2] was 0%; in assay [3], 34%; in assay [4], 81%; in assay [5], 42%.
With `COc1ccc(C(=O)NCCCN(C)Cc2ccccc2)cc1`, the Activity in assay [1] is 0%; in assay [6] it was -1%. Besides, the inhibition in assay [2] is 18%; in assay [3] it was 33%; in assay [4], 39%; in assay [5], 23%.
As for `CN(CCCNC(=O)c1ccc(Cl)cc1)Cc1ccccc1`, the Activity in assay [1] was 0%; in assay [6] it was -1%. Also, the inhibition in assay [2] stood at 11%; in assay [3], 43%; in assay [4] it was 73%; in assay [5] it was 50%.
In the case of `CN(CCCNC(=O)c1ccc([N+](=O)[O-])cc1)Cc1ccccc1`, the Activity in assay [1] was 0%; in assay [6], -1%. Moreover, the inhibition in assay [2] was determined as 4%; in assay [3], 11%; in assay [4] it was 63%; in assay [5] it was 25%.
For `CN(CCCNC(=O)c1ccc(C(F)(F)F)cc1)Cc1ccccc1`, the Activity in assay [1] is 0%; in assay [6], -2%. Moreover, the inhibition was found to be 11% in assay [2], 24% in assay [3], 70% in assay [4] and 49% in assay [5].
As for `CN(CCNC(=O)c1ccc(C#N)cc1)Cc1ccccc1`, the Activity in assay [1] is 0%; in assay [6] it was -2%. Also, the inhibition in assay [2] is 17%; in assay [3], 34%; in assay [4] it was 89%; in assay [5] it was 19%.
On to `CN(CCCNC(=O)c1ccc(Cl)cc1)CCc1ccccc1`, for which the Activity in assay [1] was 0%; in assay [6] it was -2%. For the same compound, the inhibition in assay [2] turned out to be 65%; in assay [3], 95%; in assay [4], 98%; in assay [5] it was 105%.
With `CN(CCNC(=O)c1ccc(Cl)cc1)Cc1ccccc1`, the Activity was 0% in assay [1] and -2% in assay [6]. The inhibition in assay [2] turned out to be 1%; in assay [3], 92%; in assay [4], 96%; in assay [5] it was 45%.
Turning to `COc1cccc(C(=O)NCCCN(C)Cc2ccccc2)c1`, the Activity in assay [1] is 0%; in assay [6] it was -2%. For the same compound, the inhibition is 13% in assay [2], 36% in assay [3], 56% in assay [4] and 20% in assay [5].
